{
  "source": "patent US20110039762A1",
  "about": "“TARGETED ANTIMICROBIAL MOIETIES” (C3 JIAN, INC., priority 2009, published 2011)",
  "note": "“Also recorded” adds a separate entry of the source. Square brackets hold non-standard residues; d marks the D form. Ends that are not written are not given here. Aib = CC(C)(N)C(=O)O",
  "data": [
    {"system": "microorganisms (e.g., bacteria, yeasts, fungi)", "test": "Targeting peptide binding to target microorganisms (Table 3)", "details": "peptide binding in aqueous buffers varied by peptide solubility; preferably 1x PBS", "values": [
      {"substance": "PF-784 (MAMTTVDNIVGLVIAVALMAFLFAALLFPEKF; Peptide with targeting and/or antimicrobial activity)", "Target(s) (microorganisms bound by the targeting peptide)": "Mycobacteria spp."},
      {"substance": "PF-785 (MRPQHSPAGKAFVVKKITHEQS; Peptide with targeting and/or antimicrobial activity)", "Target(s) (microorganisms bound by the targeting peptide)": "Mycobacteria spp."},
      {"substance": "PF-786 (LSERERRRLKRGII; Peptide with targeting and/or antimicrobial activity)", "Target(s) (microorganisms bound by the targeting peptide)": "Mycobacteria spp."},
      {"substance": "PF-787 (MTERQRRALLKQHPEVVSWSDYLEKRKRRTGTAG; Peptide with targeting and/or antimicrobial activity)", "Target(s) (microorganisms bound by the targeting peptide)": "Mycobacteria spp."},
      {"substance": "PF-788 (GLITVFAGTARILQLRRAAKKTHAAALR; Peptide with targeting and/or antimicrobial activity)", "Target(s) (microorganisms bound by the targeting peptide)": "Mycobacteria spp."},
      {"substance": "PF-789 (PRGAQSGHG; Peptide with targeting and/or antimicrobial activity)", "Target(s) (microorganisms bound by the targeting peptide)": "Mycobacteria spp."},
      {"substance": "PF-790 (PAGPDHLDQRDHR; Peptide with targeting and/or antimicrobial activity)", "Target(s) (microorganisms bound by the targeting peptide)": "Mycobacteria spp."},
      {"substance": "PF-791 (IFLTTQNTDYSEHNAA; Peptide with targeting and/or antimicrobial activity)", "Target(s) (microorganisms bound by the targeting peptide)": "S. mutans"},
      {"substance": "PF-792 (ALHASGIQAI; Peptide with targeting and/or antimicrobial activity)", "Target(s) (microorganisms bound by the targeting peptide)": "S. mutans"},
      {"substance": "PF-793 (YTQ[Aib]NNASAYAMLLTNKDTVP)", "Target(s) (microorganisms bound by the targeting peptide)": "S. mutans"},
      {"substance": "PF-794 (NLYFENQGN; Peptide with targeting and/or antimicrobial activity)", "Target(s) (microorganisms bound by the targeting peptide)": "S. mutans"},
      {"substance": "PF-795 (ALHKSGIQVIADWVPDQIYN; Peptide with targeting and/or antimicrobial activity)", "Target(s) (microorganisms bound by the targeting peptide)": "S. mutans"},
      {"substance": "PF-796 (YTQSNIPTAYALMLSNKDSI; Peptide with targeting and/or antimicrobial activity)", "Target(s) (microorganisms bound by the targeting peptide)": "S. mutans"},
      {"substance": "PF-797 (WYYFDNNGYM; Peptide with targeting and/or antimicrobial activity)", "Target(s) (microorganisms bound by the targeting peptide)": "S. mutans"},
      {"substance": "PF-798 (ALHSKGIKVMADWVPDQMYA; Peptide with targeting and/or antimicrobial activity)", "Target(s) (microorganisms bound by the targeting peptide)": "S. mutans"},
      {"substance": "PF-799 (YTHYNTALSYALLLTNKSSVP; Peptide with targeting and/or antimicrobial activity)", "Target(s) (microorganisms bound by the targeting peptide)": "S. mutans"},
      {"substance": "PF-800 (WYYFDNNGYM; Peptide with targeting and/or antimicrobial activity)", "Target(s) (microorganisms bound by the targeting peptide)": "S. mutans"},
      {"substance": "PF-C003 (FCSVDHDVITIAADHVKQGAEA; Peptide with targeting and/or antimicrobial activity)", "Target(s) (microorganisms bound by the targeting peptide)": "A. naeslundii; also recorded: P. gingivalis; also recorded: S. mutans"},
      {"substance": "PF-C008 (AQPRRTWLVNFGEVPSPGLTNDGMPDH; Peptide with targeting and/or antimicrobial activity)", "Target(s) (microorganisms bound by the targeting peptide)": "A. naeslundii"},
      {"substance": "PF-C034 (HPMPITVRSRKPGPLTAPSEH; Peptide with targeting and/or antimicrobial activity)", "Target(s) (microorganisms bound by the targeting peptide)": "S. mutans; also recorded: E. coli"},
      {"substance": "PF-C045 (FREGMGWPLSNEGSPTAPLPKHRNQV; Peptide with targeting and/or antimicrobial activity)", "Target(s) (microorganisms bound by the targeting peptide)": "A. naeslundii; also recorded: T. denticola"},
      {"substance": "PF-C050 (QGLARPVLRRIPL; Peptide with targeting and/or antimicrobial activity)", "Target(s) (microorganisms bound by the targeting peptide)": "A. naeslundii; also recorded: S. mutans"},
      {"substance": "PF-C063 (SHFRKGD; Peptide with targeting and/or antimicrobial activity)", "Target(s) (microorganisms bound by the targeting peptide)": "A. naeslundii; also recorded: F. nucleatum; also recorded: S. mutans"},
      {"substance": "PF-C068 (LNLFASI; Peptide with targeting and/or antimicrobial activity)", "Target(s) (microorganisms bound by the targeting peptide)": "A. naeslundii; also recorded: F. nucleatum; also recorded: S. mutans"},
      {"substance": "PF-C080 (INIPGLF; Peptide with targeting and/or antimicrobial activity)", "Target(s) (microorganisms bound by the targeting peptide)": "A. naeslundii; also recorded: F. nucleatum; also recorded: S. mutans"},
      {"substance": "PF-C093 (EKLGTMV; Peptide with targeting and/or antimicrobial activity)", "Target(s) (microorganisms bound by the targeting peptide)": "A. naeslundii; also recorded: F. nucleatum; also recorded: S. mutans"},
      {"substance": "PF-C134 (NELMKYPATLTATATTPGIKYSHLCSVCL; Peptide with targeting and/or antimicrobial activity)", "Target(s) (microorganisms bound by the targeting peptide)": "A. naeslundii; also recorded: F. nucleatum; also recorded: P. gingivalis; also recorded: S. mutans; also recorded: T. denticola"},
      {"substance": "PF-C160 (AASGFTYCASNGVWHPY; Peptide with targeting and/or antimicrobial activity)", "Target(s) (microorganisms bound by the targeting peptide)": "F. nucleatum"},
      {"substance": "PF-C259 (AEIQPHCLSVL; Peptide with targeting and/or antimicrobial activity)", "Target(s) (microorganisms bound by the targeting peptide)": "F. nucleatum; also recorded: S. mutans"},
      {"substance": "PF-C271 (FFPSYYSIIITYF; Peptide with targeting and/or antimicrobial activity)", "Target(s) (microorganisms bound by the targeting peptide)": "A. naeslundii; also recorded: F. nucleatum; also recorded: P. gingivalis; also recorded: S. mutans; also recorded: T. denticola"},
      {"substance": "PF-C273 (KNMLKRRMKQKRLFDEEDRLRVLSKYTKSYY; Peptide with targeting and/or antimicrobial activity)", "Target(s) (microorganisms bound by the targeting peptide)": "A. naeslundii; also recorded: P. gingivalis; also recorded: S. mutans; also recorded: T. denticola"},
      {"substance": "PF-C285 (FTIIELKKQKIKHGENNKKTAHPLNEPFCARA; Peptide with targeting and/or antimicrobial activity)", "Target(s) (microorganisms bound by the targeting peptide)": "A. naeslundii; also recorded: F. nucleatum; also recorded: P. gingivalis; also recorded: S. mutans; also recorded: T. denticola"},
      {"substance": "PF-S004 (VLLNIFRTLLEFFSPSNAPGAEDVPLPDTQA; Peptide with targeting and/or antimicrobial activity)", "Target(s) (microorganisms bound by the targeting peptide)": "S. epidermidis and MRSA and C. jeikeium"},
      {"substance": "PF-S007 (VVAGVVLLTALAVGSKRKEKKQIKEIQRLLAATR; Peptide with targeting and/or antimicrobial activity)", "Target(s) (microorganisms bound by the targeting peptide)": "S. epidermidis and MRSA"},
      {"substance": "PF-S015 (IENLERGARRPP; Peptide with targeting and/or antimicrobial activity)", "Target(s) (microorganisms bound by the targeting peptide)": "S. epidermidis and MRSA and C. jeikeium"},
      {"substance": "PF-S018 (GMPQIPRLRI; Peptide with targeting and/or antimicrobial activity)", "Target(s) (microorganisms bound by the targeting peptide)": "S. epidermidis and M. luteus and C. albicans and MRSA and E. faecalis and C. jeikeium and C. jejuni"},
      {"substance": "PF-S023 (MAEDERRALKRRTNRGRTRTRKRITV; Peptide with targeting and/or antimicrobial activity)", "Target(s) (microorganisms bound by the targeting peptide)": "S. epidermidis and MRSA"}
    ]}
  ]
}
